Data as given in patent US20220251109A1, “OXAAZAQUINAZOLINE-7(8H)-KETONE COMPOUND, PREPARATION METHOD THEREFOR AND PHARMACEUTICAL APPLICATION THEREOF” (GENFLEET THERAPEUTICS (SHANGHAI) INC., priority 2019, published 2022).
Where two headings read alike, the source gives them in different places.

Legend:
Format in all cases: cell-based, human
[1] = tested on: MIA PaCa-2 cells (Kras G12C mutation); experiment: Cell proliferation inhibition experiment, 3D model, CellTiter-Glo (MIA PaCa-2); settings: MIA PaCa-2, 3D sphere plate, 5 days, read-out: MIA-PaCa2 IC50
In short: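 3D spheroid model: 200 MIA PaCa-2 cells per well cultured overnight, then treated with a 3.16-fold compound dilution series (0.1% DMSO) for 5 days. Viability read by CellTiter-Glo luminescence. Inhibition rate normalised to DMSO and medium-blank controls; IC50 from four-parameter fit.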

[2] = tested on: p-ERK in MIA PaCa2 cells (Kras G12C mutation); experiment: Cell p-ERK detection experiment (HTRF) in MIA PaCa2 cells; settings: compound 2 hours
Method: MIA PaCa2 was a human pancreatic cancer cell line with Kras G12C mutation, cultured in 10% FBS+2.5% Horse serum DMEM medium. The cells in the logarithmic growth phase were taken, digested with enzyme EDTA, collected, counted and 2.5E4 cells were seeded in a 96-well cell culture plate, cultured overnight. DMSO was used to prepare 1000× compound 3.16-fold gradient concentration stock solution, and medium was used to dilute 200-fold to 5× compound stock solution. On the second day after cell seeding, 5× compound stock solution was added to each cell culture well, the final concentration was 1×, and DMSO content was 0.1%. DMSO was used as an experimental control (control). After the compound was added and cultured for two hours, the remaining medium was removed. 50 ul cell lysis buffer was added to each well, mixed and incubated for 30 minutes, then 16 ul of the mixture was transferred to a 96-well plate with a non-transparent white bottom, and 16 ul cell lysis buffer was added to blank wells. After the completion of the transfer, 4 ul p-ERK HTRF antibody mixture was added to each well, incubated for 4 hours and the fluorescence value was read. The compound inhibition rate IR (%)=(RLU control-RLU compound)/(RLU control-RLU blank)×100% was calculated, Prism 8 four-parameter method was used to fit the compound's gradient dilution concentration and the corresponding cell proliferation inhibition rate, and the IC50 value was calculate.

[3] = tested on: NCI-H358 cells (Kras G12C mutation); experiment: Cell proliferation inhibition experiment, 3D model, CellTiter-Glo (NCI-H358); settings: NCI-H358, 3D sphere plate, 5 days, 2% FBS
In short: (§1)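 NCI-H358 (800 cells/well) and A549 (400 cells/well) were grown as overnight 3D spheroids in 2% FBS medium, then exposed 5 days to 3.16-fold compound dilutions (0.1% DMSO). Viability was read by CellTiter-Glo luminescence; IC50 came from a four-parameter fit of inhibition normalised to DMSO and medium blanks.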

[4] = tested on: A549 cells (Kras G12S mutation); experiment: Cell proliferation inhibition experiment, 3D model, CellTiter-Glo (A549); settings: A549, 3D sphere plate, 5 days, 2% FBS
In short: as §1

[5] = Homo sapiens, MIA PaCa-2, 120 h

Row | IC50 [1] | IC50 [2] | IC50 [3] | IC50 [4] | IC50 [1, 5] | IC50 ([2]; Homo sapiens, MIA PaCa-2, 2 h) | IC50 ([3]; Homo sapiens, NCI-H358, 120 h) | IC50 ([4]; Homo sapiens, A549, 120 h) | SMILES
1 | 8 nM | 25 nM | 3 nM | > 10000 nM |  |  |  |  | C=CC(=O)N1CCN2c3nc(=O)n(-c4c(C)ccnc4C(C)C)c4nc(-c5c(O)cccc5F)c(Cl)c(c34)OC[C@@H]2C1 (single isomer, unassigned) [Compound Z24-2]
2 |  | 18 nM | 3 nM | > 30000 nM | 15 nM |  |  |  | C=CC(=O)N1CCN2c3nc(=O)n(-c4c(C)ccnc4C(C)C)c4nc(-c5cccc(Cl)c5F)c(Cl)c(c34)OC[C@H]2C1 (single isomer, unassigned) [Compound Z91-2]
3 |  |  |  |  | 7 nM | 39 nM | 3 nM | > 10000 nM | C=CC(=O)N1CCN2c3nc(=O)n(-c4c(C)ccnc4C(C)C)c4nc(-c5ccccc5C(F)(F)F)c(Cl)c(c34)OC[C@@H]2C1 [Compound Z66]
4 |  |  |  |  | 6 nM | 54 nM | 3 nM | 18700 nM | C=CC(=O)N1CCN2c3nc(=O)n(-c4c(C)ccnc4C(C)C)c4nc(-c5c(O)cccc5F)c(F)c(c34)OC[C@@H]2C1 [Compound Z85]
5 | 10 nM | 64 nM | 6 nM | > 10000 nM |  |  |  |  | C=CC(=O)N1CCN2c3nc(=O)n(-c4c(C)ccnc4C(C)C)c4nc(-c5ccc(F)cc5F)c(Cl)c(c34)OC[C@@H]2C1 (single isomer, unassigned) [Compound Z49-1]
6 | 3 nM | 15 nM | 1 nM | > 10000 nM |  |  |  |  | C=CC(=O)N1CCN2c3nc(=O)n(-c4c(C)ccnc4C(C)C)c4nc(-c5cccc(F)c5F)c(Cl)c(c34)OC[C@@H]2C1 (single isomer, unassigned) [Compound Z47-1]
7 |  | 8 nM | 1 nM | > 10000 nM | 2 nM |  |  |  | C=CC(=O)N1CCN2c3nc(=O)n(-c4c(C)ccnc4C(C)C)c4nc(-c5ccc(F)cc5F)c(Cl)c(c34)OC[C@H]2C1 (single isomer, unassigned) [Compound Z76-2]
8 |  |  |  |  | 6 nM | 45 nM | 4 nM | > 10000 nM | C=CC(=O)N1CCN2c3nc(=O)n(-c4c(C)ccnc4C(C)C)c4nc(-c5ccccc5Cl)c(F)c(c34)OC[C@H]2C1 [Compound Z79]
9 |  |  | 1 nM |  | 3 nM | 13 nM |  | > 10000 nM | C=CC(=O)N1CCN2c3nc(=O)n(-c4c(C)ccnc4C(C)C)c4nc(-c5c(O)cccc5F)c(Cl)c(c34)OC[C@H]2C1 (single isomer, unassigned) [Compound Z23-1]
10 |  |  | 3 nM | 5480 nM | 8 nM | 20 nM |  |  | C=CC(=O)N1CCN2c3nc(=O)n(-c4c(C)ccnc4C(C)C)c4nc(-c5ccccc5F)c(Cl)c(c34)OC[C@@H]2C1 (single isomer, unassigned) [Compound Z46-2]
11 |  |  |  |  | 34 nM | 182 nM | 9 nM | > 10000 nM | C=CC(=O)N1CCN2c3nc(=O)n(-c4c(C)ccnc4C(C)C)c4nc(-c5ccc(Cl)cc5F)c(Cl)c(c34)OC[C@@H]2C1 [Compound Z65]

Second part, the compound before the results:

Row | SMILES | IC50 [1] | IC50 [2] | IC50 [3] | IC50 [4] | IC50 [1, 5] | IC50 ([2]; Homo sapiens, MIA PaCa-2, 2 h) | IC50 ([3]; Homo sapiens, NCI-H358, 120 h) | IC50 ([4]; Homo sapiens, A549, 120 h)
12 | C=CC(=O)N1CCN2c3nc(=O)n(-c4c(C)nc(OC)nc4C(C)C)c4nc(-c5ccccc5F)c(Cl)c(c34)OC[C@H]2C1 [Compound Z116] |  |  |  |  | 26 nM | 26 nM | 3 nM | 8890 nM
13 | C=CC(=O)N1CCN2c3nc(=O)n(-c4c(C)ccnc4C(C)C)c4nc(-c5c(O)cccc5F)c(F)c(c34)OC[C@H]2C1 (single isomer, unassigned) [Compound Z73-2] | 5 nM | 20 nM | 2 nM | > 10000 nM |  |  |  | 
14 | C=CC(=O)N1CCN2c3nc(=O)n(-c4nccnc4C(C)C)c4nc(-c5ccccc5F)c(Cl)c(c34)OC[C@H]2C1 [Compound Z104-1] |  | 14 nM | 8 nM |  | 12 nM |  |  | 11300 nM
15 | C=CC(=O)N1CCN2c3nc(=O)n(-c4nccnc4C(C)C)c4nc(-c5c(O)cccc5F)c(F)c(c34)OC[C@H]2C1 [Compound Z107-2] |  | 35 nM | 7 nM | > 30000 nM | 19 nM |  |  | 
16 | C=CC(=O)N1CCN2c3nc(=O)n(-c4c(C#N)cnn4C(C)(C)C)c4nc(-c5c(O)cccc5F)c(Cl)c(c34)OC[C@H]2C1 [Compound Z120] |  |  |  |  | 85 nM | 193 nM | 17 nM | 27700 nM
17 | C=CC(=O)N1CCN2c3nc(=O)n(-c4c(C)cc(=O)n(C)c4C(C)C)c4nc(-c5ccccc5F)c(Cl)c(c34)OC[C@H]2C1 [Compound Z121] |  |  |  |  | 5 nM | 16 nM | 3 nM | > 10000 nM
18 | C=CC(=O)N1CCN2c3nc(=O)n(-c4nccnc4C(C)C)c4nc(-c5c(O)cccc5F)c(Cl)c(c34)OC[C@H]2C1 [Compound Z105-2] |  | 20 nM | 5 nM | > 30000 nM | 11 nM |  |  | 
19 | C=CC(=O)N1CCN2c3nc(=O)n(-c4c(C#N)cnn4C(C)(C)C)c4nc(-c5ccccc5F)c(Cl)c(c34)OC[C@H]2C1 (single isomer, unassigned) [Compound Z109-1] |  |  | 5 nM |  | 12 nM | 18 nM |  | 8480 nM
20 | C=CC(=O)N1CCN2c3nc(=O)n(-c4c(Cl)cncc4C(C)C)c4nc(-c5ccccc5F)c(Cl)c(c34)OC[C@H]2C1 [Compound Z114] |  |  |  |  | 74 nM | 39 nM | 8 nM | 4630 nM
21 | C=CC(=O)N1CCN2c3nc(=O)n(-c4c(C)ccnc4C4CC4)c4nc(-c5c(O)cccc5F)c(F)c(c34)OC[C@H]2C1 (single isomer, unassigned) [Compound Z112-1] | 4 nM | 24 nM | 3 nM |  |  |  |  | > 30000 nM
22 | C=CC(=O)N1CCN2c3nc(=O)n(-c4c(C5CC5)ncnc4C4CC4)c4nc(-c5c(O)cccc5F)c(Cl)c(c34)OC[C@H]2C1 [Compound Z94] |  |  |  |  | 2 nM | 7 nM | 2 nM | > 10000 nM
23 | C=CC(=O)N1CCN2c3nc(=O)n(-c4c(C5CC5)ncnc4C4CC4)c4nc(-c5ccccc5F)c(Cl)c(c34)OC[C@H]2C1 [Compound Z93] |  |  |  |  | 2 nM | 9 nM | 1 nM | 12800 nM
24 | C=CC(=O)N1CCN2c3nc(=O)n(-c4c(C5CC5)ncnc4C4CC4)c4nc(-c5c(O)cccc5F)c(F)c(c34)OC[C@H]2C1 [Compound Z99] |  |  |  |  | 3 nM | 12 nM | 2 nM | > 10000 nM
25 | C=CC(=O)N1CCN2c3nc(=O)n(-c4c(CO)ccnc4C(C)C)c4nc(-c5ccccc5F)c(Cl)c(c34)OC[C@H]2C1 [Compound Z122] |  |  |  |  | 11 nM | 101 nM | 7 nM | > 30000 nM
26 | C=CC(=O)N1CCN2c3nc(=O)n(-c4c(C)ncnc4C(C)C)c4nc(-c5ccccc5F)c(Cl)c(c34)OC[C@H]2C1 (single isomer, unassigned) [Compound Z95-2] |  | 5 nM | 1 nM | > 10000 nM | 1 nM |  |  | 
